Laboratory results published in article PMC9743148 (Annals of oncology : official journal of the European …, 2020).

Tested on: patients with advanced solid tumors
Assay: Treatment-emergent adverse events
Format: in vivo, human
[1] = Combined t.i.w. cohorts (n = 42)

C=CC(=O)N1CC[C@H](n2nc(C#Cc3cc(OC)cc(OC)c3)c3c(N)ncnc32)C1 [futibatinib]
AST increased TEAE, Grade 1 [1]: 1 (2) n (%) | AST increased TEAE, Grade 2 [1]: 3 (7) n (%) | AST increased TEAE, Grade 3 [1]: 0 (0) n (%) | AST increased TEAE, Grade 4 [1]: 0 (0) n (%) | Abdominal pain TEAE, Any grade [1]: 8 (19) n (%) | Abdominal pain TEAE, Grade 1 [1]: 4 (10) n (%) | Abdominal pain TEAE, Grade 2 [1]: 2 (5) n (%) | Abdominal pain TEAE, Grade 3 [1]: 2 (5) n (%) | Abdominal pain TEAE, Grade 4 [1]: 0 (0) n (%) | Alopecia TEAE, Any grade [1]: 4 (10) n (%) | Alopecia TEAE, Grade 1 [1]: 4 (10) n (%) | Alopecia TEAE, Grade 2 [1]: 0 (0) n (%) | Alopecia TEAE, Grade 3 [1]: 0 (0) n (%) | Alopecia TEAE, Grade 4 [1]: 0 (0) n (%) | Anemia TEAE, Any grade [1]: 13 (31) n (%) | Anemia TEAE, Grade 1 [1]: 2 (5) n (%) | Anemia TEAE, Grade 2 [1]: 8 (19) n (%) | Anemia TEAE, Grade 3 [1]: 3 (7) n (%) | Anemia TEAE, Grade 4 [1]: 0 (0) n (%) | Any TEAE, Any grade [1]: 42 (100) n (%) | Any TEAE, Grade 1 [1]: 3 (7) n (%) | Any TEAE, Grade 2 [1]: 14 (33) n (%) | Any TEAE, Grade 3 [1]: 20 (48) n (%) | Any TEAE, Grade 4 [1]: 2 (5) n (%) | Any treatment-related AE, Any grade [1]: 37 (88) n (%) | Any treatment-related AE, Grade 1 [1]: 12 (29) n (%) | Any treatment-related AE, Grade 2 [1]: 14 (33) n (%) | Any treatment-related AE, Grade 3 [1]: 10 (24) n (%) | Any treatment-related AE, Grade 4 [1]: 1 (2) n (%) | Asthenia TEAE, Any grade [1]: 9 (21) n (%) | Asthenia TEAE, Grade 1 [1]: 5 (12) n (%) | Asthenia TEAE, Grade 2 [1]: 4 (10) n (%) | Asthenia TEAE, Grade 3 [1]: 0 (0) n (%) | Asthenia TEAE, Grade 4 [1]: 0 (0) n (%) | Back pain TEAE, Any grade [1]: 3 (7) n (%) | Back pain TEAE, Grade 1 [1]: 2 (5) n (%) | Back pain TEAE, Grade 2 [1]: 1 (2) n (%) | Back pain TEAE, Grade 3 [1]: 0 (0) n (%) | Back pain TEAE, Grade 4 [1]: 0 (0) n (%) | Constipation TEAE, Any grade [1]: 11 (26) n (%) | Constipation TEAE, Grade 1 [1]: 10 (24) n (%) | Constipation TEAE, Grade 2 [1]: 1 (2) n (%) | Constipation TEAE, Grade 3 [1]: 0 (0) n (%) | Constipation TEAE, Grade 4 [1]: 0 (0) n (%) | Cough TEAE, Any grade [1]: 2 (5) n (%) | Cough TEAE, Grade 1 [1]: 2 (5) n (%) | Cough TEAE, Grade 2 [1]: 0 (0) n (%) | Cough TEAE, Grade 3 [1]: 0 (0) n (%) | Cough TEAE, Grade 4 [1]: 0 (0) n (%) | Decreased appetite TEAE, Any grade [1]: 9 (21) n (%) | Decreased appetite TEAE, Grade 1 [1]: 5 (12) n (%) | Decreased appetite TEAE, Grade 2 [1]: 3 (7) n (%) | Decreased appetite TEAE, Grade 3 [1]: 1 (2) n (%) | Decreased appetite TEAE, Grade 4 [1]: 0 (0) n (%) | Diarrhea TEAE, Any grade [1]: 17 (40) n (%) | Diarrhea TEAE, Grade 1 [1]: 12 (29) n (%) | Diarrhea TEAE, Grade 2 [1]: 5 (12) n (%) | Diarrhea TEAE, Grade 3 [1]: 0 (0) n (%) | Diarrhea TEAE, Grade 4 [1]: 0 (0) n (%) | Dose reduction because of TEAE, Any grade [1]: 4 (10) n (%) | Dose reduction because of TEAE, Grade 1 [1]: 0 (0) n (%) | Dose reduction because of TEAE, Grade 2 [1]: 3 (7) n (%) | Dose reduction because of TEAE, Grade 3 [1]: 1 (2) n (%) | Dose reduction because of TEAE, Grade 4 [1]: 0 (0) n (%) | Dosing delay/interruption because of TEAE, Any grade [1]: 21 (50) n (%) | Dosing delay/interruption because of TEAE, Grade 1 [1]: 0 (0) n (%) | Dosing delay/interruption because of TEAE, Grade 2 [1]: 6 (14) n (%) | Dosing delay/interruption because of TEAE, Grade 3 [1]: 14 (33) n (%) | Dosing delay/interruption because of TEAE, Grade 4 [1]: 1 (2) n (%) | Dry eye TEAE, Any grade [1]: 2 (5) n (%) | Dry eye TEAE, Grade 1 [1]: 2 (5) n (%) | Dry eye TEAE, Grade 2 [1]: 0 (0) n (%) | Dry eye TEAE, Grade 3 [1]: 0 (0) n (%) | Dry eye TEAE, Grade 4 [1]: 0 (0) n (%) | Dry mouth TEAE, Any grade [1]: 14 (33) n (%) | Dry mouth TEAE, Grade 1 [1]: 13 (31) n (%) | Dry mouth TEAE, Grade 2 [1]: 1 (2) n (%) | Dry mouth TEAE, Grade 3 [1]: 0 (0) n (%) | Dry mouth TEAE, Grade 4 [1]: 0 (0) n (%) | Dry skin TEAE, Any grade [1]: 7 (17) n (%) | Dry skin TEAE, Grade 1 [1]: 6 (14) n (%) | Dry skin TEAE, Grade 2 [1]: 1 (2) n (%) | Dry skin TEAE, Grade 3 [1]: 0 (0) n (%) | Dry skin TEAE, Grade 4 [1]: 0 (0) n (%) | Fatigue TEAE, Any grade [1]: 7 (17) n (%) | Fatigue TEAE, Grade 1 [1]: 2 (5) n (%) | Fatigue TEAE, Grade 2 [1]: 5 (12) n (%) | Fatigue TEAE, Grade 3 [1]: 0 (0) n (%) | Fatigue TEAE, Grade 4 [1]: 0 (0) n (%) | Headache TEAE, Any grade [1]: 7 (17) n (%) | Headache TEAE, Grade 1 [1]: 6 (14) n (%) | Headache TEAE, Grade 2 [1]: 1 (2) n (%) | Headache TEAE, Grade 3 [1]: 0 (0) n (%) | Headache TEAE, Grade 4 [1]: 0 (0) n (%) | Hypercalcemia TEAE, Any grade [1]: 5 (12) n (%) | Hypercalcemia TEAE, Grade 1 [1]: 1 (2) n (%) | Hypercalcemia TEAE, Grade 2 [1]: 1 (2) n (%) | Hypercalcemia TEAE, Grade 3 [1]: 3 (7) n (%) | Hypercalcemia TEAE, Grade 4 [1]: 0 (0) n (%) | Hyperphosphatemia TEAE, Any grade [1]: 21 (50) n (%) | Hyperphosphatemia TEAE, Grade 1 [1]: 7 (17) n (%) | Hyperphosphatemia TEAE, Grade 2 [1]: 11 (26) n (%) | Hyperphosphatemia TEAE, Grade 4 [1]: 0 (0) n (%) | Hyperphosphatemia TEAE, grade 3 [1]: 3 (7) n (%) | Hypomagnesemia TEAE, Any grade [1]: 5 (12) n (%) | Hypomagnesemia TEAE, Grade 1 [1]: 4 (10) n (%) | Hypomagnesemia TEAE, Grade 2 [1]: 1 (2) n (%) | Hypomagnesemia TEAE, Grade 3 [1]: 0 (0) n (%) | Hypomagnesemia TEAE, Grade 4 [1]: 0 (0) n (%) | Hyponatremia TEAE, Any grade [1]: 5 (12) n (%) | Hyponatremia TEAE, Grade 1 [1]: 1 (2) n (%) | Hyponatremia TEAE, Grade 2 [1]: 0 (0) n (%) | Hyponatremia TEAE, Grade 3 [1]: 4 (10) n (%) | Hyponatremia TEAE, Grade 4 [1]: 0 (0) n (%) | Nausea TEAE, Any grade [1]: 12 (29) n (%) | Nausea TEAE, Grade 1 [1]: 11 (26) n (%) | Nausea TEAE, Grade 2 [1]: 0 (0) n (%) | Nausea TEAE, Grade 3 [1]: 1 (2) n (%) | Nausea TEAE, Grade 4 [1]: 0 (0) n (%) | Onycholysis TEAE, Any grade [1]: 5 (12) n (%) | Onycholysis TEAE, Grade 1 [1]: 4 (10) n (%) | Onycholysis TEAE, Grade 2 [1]: 1 (2) n (%) | Onycholysis TEAE, Grade 3 [1]: 0 (0) n (%) | Onycholysis TEAE, Grade 4 [1]: 0 (0) n (%) | Pyrexia TEAE, Any grade [1]: 5 (12) n (%) | Pyrexia TEAE, Grade 1 [1]: 4 (10) n (%) | Pyrexia TEAE, Grade 2 [1]: 0 (0) n (%) | Pyrexia TEAE, Grade 3 [1]: 1 (2) n (%) | Pyrexia TEAE, Grade 4 [1]: 0 (0) n (%) | Rash TEAE, Any grade [1]: 5 (12) n (%) | Rash TEAE, Grade 1 [1]: 5 (12) n (%) | Rash TEAE, Grade 2 [1]: 0 (0) n (%) | Rash TEAE, Grade 3 [1]: 0 (0) n (%) | Rash TEAE, Grade 4 [1]: 0 (0) n (%) | Stomatitis TEAE, Any grade [1]: 5 (12) n (%) | Stomatitis TEAE, Grade 1 [1]: 2 (5) n (%) | Stomatitis TEAE, Grade 2 [1]: 1 (2) n (%) | Stomatitis TEAE, Grade 3 [1]: 2 (5) n (%) | Stomatitis TEAE, Grade 4 [1]: 0 (0) n (%) | Treatment discontinuation because of TEAE, Any grade [1]: 1 (2) n (%) | Treatment discontinuation because of TEAE, Grade 1 [1]: 0 (0) n (%) | Treatment discontinuation because of TEAE, Grade 2 [1]: 0 (0) n (%) | Treatment discontinuation because of TEAE, Grade 3 [1]: 1 (2) n (%) | Treatment discontinuation because of TEAE, Grade 4 [1]: 0 (0) n (%) | Urinary tract infection TEAE, Any grade [1]: 5 (12) n (%) | Urinary tract infection TEAE, Grade 1 [1]: 0 (0) n (%) | Urinary tract infection TEAE, Grade 2 [1]: 4 (10) n (%) | Urinary tract infection TEAE, Grade 3 [1]: 1 (2) n (%) | Urinary tract infection TEAE, Grade 4 [1]: 0 (0) n (%) | Vomiting TEAE, Any grade [1]: 9 (21) n (%) | Vomiting TEAE, Grade 1 [1]: 5 (12) n (%) | Vomiting TEAE, Grade 2 [1]: 3 (7) n (%) | Vomiting TEAE, Grade 3 [1]: 1 (2) n (%) | Vomiting TEAE, Grade 4 [1]: 0 (0) n (%) | Hyperphosphatemia TEAE, grade 3 (combined q.d. cohorts): 16% | Hyperphosphatemia TEAE, any grade (combined q.d. cohorts, 30 of 44 patients): 68% | Hyperphosphatemia TEAE, grade 3 (combined t.i.w. cohorts): 7% | Hyperphosphatemia TEAE, any grade (combined t.i.w. cohorts, 21 of 42 patients): 50% | Patients with grade ≥3 TEAEs (overall population): > 50% | Grade 3 hyponatremia TEAE (overall population (n = 86)): 7% | Hyperphosphatemia leading to dose reductions (overall population (n = 86)): 6% | Hyperphosphatemia leading to dosing interruptions (overall population (n = 86)): 17% | Patients with grade 3 TEAEs (overall population (n = 86)): 48% | Patients with grade 4 TEAEs (overall population (n = 86)): 6% | Patients with treatment-related grade 3 AEs (overall population (n = 86)): 30% | TEAEs leading to treatment discontinuations (overall population (n = 86)): 3% | Treatment-related deaths (overall population (n = 86)): No treatment-related deaths
